According to patent publication US20220160009A1, “COMPOSITION COMPRISING TRANSFRUCTOSYLATED STEVIOL GLYCOSIDE” (CJ CHEILJEDANG CORPORATION, priority 2019, published 2022):

How the values were obtained:
[1] = Sensory descriptive analysis by experts (n=15); conditions: diluted to equivalent sweetness based on 10 brix of sugar
Experimental: The transfructosylated Stevioside (STV-Fru) and the transfructosylated Rebaudioside A (RA-Fru) prepared in Preparation Example 1 were diluted to the sweetness equivalent to Stevioside (STV) and Rebaudioside A (RA) (sweetness based on 10 brix of sugar), respectively, and then presented to experts (n=15) for descriptive analysis.

[2] = Sensory preference evaluation by 15 panels; conditions: diluted to sweetness equivalent to 10% (w/w) or 10 brix of sugar, 9-point scale converted to 5-point scale
Experimental: Prior to sensory evaluation, four samples of Example 1 (STV, STV-Fru, RA, RA-Fru) were diluted to the sweetness equivalent to 10% (w/w) or 10 brix of sugar, and the sensory evaluation was carried out on the four samples.
The evaluation was proceeded as follow: 15 panels were given the four samples and required to evaluate the sweetness preference and the overall preference of the four samples on a 9-point scale (1=very much dislike, 5=neither dislike nor like, 9=very much like).
Then, the statistical analysis was converted to a 5-point scale to verify the significant difference through paired T tests (reliability level of 95%).

[3] = listed as transfructosylated Stevioside
[4] = listed as transfructosylated Rebaudioside A

| Structure (SMILES) | Bitterness Intensity [1] | Feeling of Weight [1] | Off-smell/Off flavor Intensity [1] | Overall Preference [1] | Sweetness Intensity [1] | Sweetness Persistence [1] | Sweetness Preference [1] | Overall Preference [2] | Sweetness Preference [2] | further results |
| --- | --- | --- | --- | --- | --- | --- | --- | --- | --- | --- |
| C=C1C[C@@]23CC[C@H]4[C@@](C)(CCC[C@@]4(C)C(=O)O[C@@H]4O[C@H](CO)[C@@H](O)[C@H](O)[C@H]4O)[C@@H]2CC[C@]1(O[C@@H]1O[C@H](CO)[C@@H](O)[C@H](O)[C@H]1O[C@@H]1O[C@H](CO)[C@@H](O)[C@H](O)[C@H]1O)C3 [STV, Stevioside, reference compound] | 3.9 | 2.8 | 3.5 | 2.1 | 2.8 | 2.9 | 2.3 | 2.02 | 2.13 |  |
| C=C1C[C@@]23CC[C@H]4[C@@](C)(CCC[C@@]4(C)C(=O)O[C@@H]4O[C@H](CO)[C@@H](O)[C@H](O)[C@H]4O)[C@@H]2CC[C@]1(O[C@@H]1O[C@H](CO)[C@@H](O)[C@H](O[C@@H]2O[C@H](CO)[C@@H](O)[C@H](O)[C@H]2O)[C@H]1O[C@@H]1O[C@H](CO)[C@@H](O)[C@H](O)[C@H]1O)C3 [RA, Rebaudioside A, reference compound] | 3.4 | 2.9 | 3.3 | 2.6 | 3.2 | 2.9 | 2.5 | 2.72 | 2.51 |  |
| C=C1C[C@@]23CC[C@H]4[C@@](C)(CCC[C@@]4(C)C(=O)O[C@@H]4O[C@H](CO[C@]5(CO)O[C@H](CO)[C@@H](O)[C@@H]5O)[C@@H](O)[C@H](O)[C@H]4O)[C@@H]2CC[C@]1(O[C@@H]1O[C@H](CO)[C@@H](O)[C@H](O)[C@H]1O[C@@H]1O[C@H](CO)[C@@H](O)[C@H](O)[C@H]1O)C3 [STV-Fru] | 2.3 | 3.2 | 2.3 | 3.5 | 2.6 | 2.7 | 3.3 | 3.02 | 3.14 | Bitterness Intensity [1, 3]: significantly low; Off-smell/Off flavor Intensity [1, 3]: significantly low; Overall Preference [1, 3]: significantly high; Sweetness Preference [1, 3]: significantly high; Overall Preference [2, 3]: excellent; Sweetness Preference [2, 3]: excellent |
| C=C1C[C@@]23CC[C@H]4[C@@](C)(CCC[C@@]4(C)C(=O)O[C@@H]4O[C@H](CO[C@]5(CO)O[C@H](CO)[C@@H](O)[C@@H]5O)[C@@H](O)[C@H](O)[C@H]4O)[C@@H]2CC[C@]1(O[C@@H]1O[C@H](CO)[C@@H](O)[C@H](O[C@@H]2O[C@H](CO)[C@@H](O)[C@H](O)[C@H]2O)[C@H]1O[C@@H]1O[C@H](CO)[C@@H](O)[C@H](O)[C@H]1O)C3 [RA-Fru, 13-[(2-β-D-glucopyranosyl-3-O-β-D-glucopyranosyl-β-D-glucopyranosyl)oxy]ent-kaur-16-en-19-oic acid 6-O-β-D-fructofuranose-β-D-glucopyranosyl ester] | 1.8 | 2.7 | 2.4 | 3.5 | 3.1 | 2.6 | 3.4 | 3.73 | 3.42 | Bitterness Intensity [1, 4]: significantly low; Off-smell/Off flavor Intensity [1, 4]: significantly low; Overall Preference [1, 4]: significantly high; Sweetness Preference [1, 4]: significantly high; Overall Preference [2, 4]: excellent; Sweetness Preference [2, 4]: excellent |
